Laboratory results from patent US11298364B2, “Methods and products for preventing and/or treating microorganism infections comprising iron chelators and non-iron porphyrins” (The University of Adelaide, priority 2015, dated 2022).

Columns and labels:
[1] = tested on: S. aureus ATCC 25923 biofilms; experiment: S. aureus biofilm killing, 96-well biofilm, AlamarBlue viability assay; assay type: cell-based, Staphylococcus aureus; details: 2 h
Method: Single colonies of S. aureus ATCC 25923 (American Type Culture Collection, Manassas, Va., USA) were immersed in 0.45% saline (Sigma Aldrich, Germany), adjusted to 1.0±0.1 McFarland units (3×10^8 colony forming units/ml), and diluted 1:15 in nutrient broth (Oxoid Ltd., England). The bacteria-broth mixture was added into 96-well plates at 150 μl per well (Costar®, Corning Incorporated, NY, USA). Incubation for 72 hours at 37° C. on a rotating plate set at 70 rpm (3D Gyratory Mixer, Ratek Instruments, Australia) assured extensive S. aureus biofilm growth.
Biofilms were washed twice with phosphate buffered saline (PBS, Sigma Aldrich, Germany) to remove planktonic cells, before treating the biofilms with various concentrations of i) Deferiprone (“Def”; 3-hydroxy-1,2-dimethylpyridin-4(1H)-one, Sigma Aldrich, Germany), ii) Gallium-Protoporphyrin (“GAPP”; Frontier Scientific, UT, USA), iii) a concurrent combination of both compounds and iv) a consecutive combination of both compounds. To prepare the treatments, Def was dissolved in water and GaPP was dissolved in an aqueous 0.03% solution of Tween® 80 (polyoxyethylene sorbitan […], Sigma Aldrich, Germany), i.e. above the critical micelle concentration (CMC) of Tween® 80 ([…]). Controls included bacterial wells without treatment (i.e. 100% bacterial growth, negative control), blank wells without bacteria (i.e. 0% growth, positive control) and bacterial wells with Tween® 80 treatment (as a control for GaPP dilutions). After 2 hours incubation of each treatment at 37° C. on a rotating plate, a second washing step with PBS followed to remove the treatments.
Bacterial viability was assessed using the AlamarBlue cell viability assay as described in Peeters, E. et al. (2008) Journal of Microbiological Methods, 72(2): p. 157-165. A 10% AlamarBlue dilution (Resazurin, Life Technologies, Australia) in nutrient broth was prepared and added to each well. Plates were incubated in the dark at 37° C. on a rotating plate. Fluorescence of Resorufin was measured hourly on a FLUOstar OPTIMA plate reader (BMG LABTECH, Germany). The method was set at bottom reading and fluorescence was measured at λexcitation 530 nm/λemission 590 nm. Maximum intensities were typically reached after 6 hours incubation and used for quantification according to Equation 1:
Bacterial viability was determined as the percentage of biofilm killing (% BK), where IC represents the fluorescence intensity of the controls (i.e. 100% bacterial growth) and IT indicates the maximum intensity of the treatments. Both IC and IT were corrected by the intensity of background (i.e. 0% bacterial growth).

[2] = tested on: planktonic S. aureus ATCC 25923; experiment: Minimal inhibitory concentration, broth microdilution (Example 1); assay type: cell-based, Staphylococcus aureus; details: 20 hours, 37° C.
Method: MIC values were assessed for the individual compounds Def and GaPP against planktonic S. aureus using standard methods, specifically colony suspension method and broth microdilution as described in Wiegand, I. et al. (2008) Nat Protoc, 3(2): p. 163-75. Briefly, single colonies of S. aureus ATCC 25923 were suspended in 0.45% saline and adjusted to 0.5 McFarland units. The bacterial suspension was 1:100 diluted with nutrient broth and plated into 96-well plates. Various treatment dilutions of Def and GaPP were added, followed by incubation of the plate at 37° C. for 20 hours. The MIC was determined as the lowest drug concentration preventing turbidity.

[3] = tested on: L929 cells (mouse fibroblast cell line); experiment: LDH cell viability test; assay type: cell-based; details: 2 h
Method: (§1) L929 cells (mouse fibroblast cell line) and Nuli-1 cells (human airway epithelial cell line) were obtained from ATCC (American Type Culture Collection, Manassas, Va., USA). The Nuli-1 cell line was cultured in Bronchial Epithelial Cell Growth Medium (Lonza, Australia) and L929 cells were grown in Dulbecco's Modified Eagle Medium (Sigma-Aldrich, Germany). Cells were maintained in a fully humidified incubator with 5% CO2 at 37° C.
(§2) The lactate dehydrogenase (LDH) bioassay (Roche Diagnostics Corporation, Indianapolis, Ind., USA) was performed to assess the cytotoxic effects of Def and GaPP. Briefly, cells were seeded at 1×10^4 into each well in 100 μl in quadruplicate wells of 96-well flat-bottom plates and incubated for 24 hours (37° C., 5% CO2) to allow attachment of cells. To assess the toxicity of the dual treatment, firstly, 100 μl of Def (20 mM) was added to each well. After 2 hours incubation, cells were washed three times with PBS and were exposed to different concentrations of GaPP (100, 200, 300, 400 and 500 μg/ml) for another 2 hours. In addition, cells were separately treated with either Def or GaPP for 2 hours. The OD was measured at 490 nm.

[4] = tested on: Nuli-1 cells (human airway epithelial cell line); experiment: LDH cell viability test; assay type: cell-based; details: 2 h
Method: as §1, §2

S. aureus = experiment: Plate assay for anti-bacterial properties (agar holes filled with vehicle); assay type: cell-based; details: in vehicle: 20 mM Def and/or 200 μg/ml GaPP, 24 hours
Method: To investigate the anti-bacterial properties of Def and GaPP individually, or with Def and GaPP in combination, a plate assay was used. Briefly, liquid nutrient agar was mixed with an aliquot of a S. aureus or Pseudomonas aeruginosa overnight culture and poured into Petri dishes. After the agar was solidified, holes (0.9 cm diameter) were punched into the agar and aspirated. Subsequently, the holes were filled with 200 μl of a vehicle with and without Def/GaPP. Following incubation at 37° C. for 24 hours, the inhibition diameter was assessed as a measure of efficacy against S. aureus or Pseudomonas aeruginosa bacteria.

[5] = Drug release from hydrogel into phosphate buffered saline; assay type: physicochemical
Method: Drug release: Five millilitre of gel was prepared in a Falcon tube and allowed to solidify, after which 10 ml release medium (phosphate buffered saline, Sigma Aldrich) was added. The tube was incubated at 37° C. on a rotating platform for 20 days. […] The concentration of […] quantified by UV-Vis spectroscopy (Evolution 201 UV-Vis Spectrophotometer, Thermo Fisher Scientific, Scoresby, VIC, Australia) at 280 nm and 405 nm, respectively, by interpolating from a standard curve.

[6] = tested on: planktonic S. aureus ATCC 25923; experiment: MIC of gel-released drugs, broth dilution (Example 6); assay type: cell-based, Staphylococcus aureus; details: S. aureus 25923
Method: (§3) Bacterial strains: S. aureus ATCC 25923 was purchased from American Type Culture Collection (Manassas, Va., USA). Clinical MRSA isolate strains were obtained from Adelaide Pathology Partners (Mile End, SA, Australia).
(§4) The MIC was evaluated as the lowest drug concentration preventing bacterial growth.

[7] = tested on: planktonic clinical MRSA isolate MRSA a; experiment: as above; assay type: cell-based, Staphylococcus aureus; details: MRSA a (resistant to 4 antibiotics)
Method: as §3, §4

[8] = tested on: planktonic clinical MRSA isolate MRSA b; experiment: as above; assay type: cell-based, Staphylococcus aureus; details: MRSA b (resistant to 4 antibiotics)
Method: as §3, §4

[9] = tested on: planktonic clinical MRSA isolate MRSA c; experiment: as above; assay type: cell-based, Staphylococcus aureus; details: MRSA c (resistant to 5 antibiotics)
Method: as §3, §4

[10] = tested on: planktonic clinical MRSA isolate MRSA d; experiment: as above; assay type: cell-based, Staphylococcus aureus; details: MRSA d (resistant to 7 antibiotics)
Method: as §3, §4

[11] = tested on: planktonic clinical MRSA isolate MRSA e; experiment: as above; assay type: cell-based, Staphylococcus aureus; details: MRSA e (resistant to 9 antibiotics)
Method: as §3, §4

[12] = Staphylococcus aureus, read-out: minimal inhibitory concentration

## Cc1c(O)c(=O)ccn1C [Def, 3-hydroxy-1,2-dimethylpyridin-4(1H)-one, reference compound]
[1]; Def 0.5 mM
  Biofilm killing (%) by single treatment Def: 6.09%
[1]; Def 1.5 mM
  Biofilm killing (%) by single treatment Def: 7.65%
[1]; Def 5 mM
  Biofilm killing (%) by single treatment Def: 12.07%
[1]; Def 10 mM
  Biofilm killing (%) by single treatment Def: 22.88%
[1]; Def 20 mM
  Biofilm killing (%) by single treatment Def: 34.00%
[1]; Def at concentrations above 20 mM
  biofilm reduction plateau: approximately 34%
[2]; Staphylococcus aureus, ATCC25923, read-out: MIC
  MIC: 2500 µM
[3]; Def 20 mM
  cell viability (LDH assay) vs negative control: no statistically significant difference
[4]; Def 20 mM
  cell viability (LDH assay) vs negative control: no statistically significant difference
S. aureus
  anti-bacterial activity (inhibition on plate): relatively little anti-bacterial activity
[5]; 37° C., PBS
  time to complete release from hydrogel: 48 to 72 h
[5]; after approximately 48-72 hours, 37° C., PBS
  release of Def (percentage of the original concentration in the gel): 100%
[6]; Staphylococcus aureus, ATCC25923, read-out: minimal inhibitory concentration
  MIC: 28 µg/mL
[7]; [12]
  MIC: 56 µg/mL
[8]; [12]
  MIC: 56 µg/mL
[9]; [12]
  MIC: 56 µg/mL
[10]; [12]
  MIC: 56 µg/mL
[11]; [12]
  MIC: 56 µg/mL

## C=CC1=C(C)C2=[N+]3C1=Cc1c(C)c(C=C)c4[n]1[Ga-]31[n]3c(c(C)c(CCC(=O)O)c3=CC3=[N+]1C(=C4)C(C)=C3CCC(=O)O)=C2 (stereo not shown) [GaPP, gallium-protoporphyrin IX]
[1]; GaPP 1 μg/ml
  Biofilm killing (%) by single treatment GaPP: 9.04%
[1]; GaPP 5 μg/ml
  Biofilm killing (%) by single treatment GaPP: 32.18%
[1]; GaPP 10 μg/ml
  Biofilm killing (%) by single treatment GaPP: 41.99%
[1]; GaPP 50 μg/ml
  Biofilm killing (%) by single treatment GaPP: 52.90%
[1]; GaPP 100 μg/ml
  Biofilm killing (%) by single treatment GaPP: 69.86%
[2]
  MIC: 0.4 µg/mL
[3]; GaPP 500 μg/ml
  cell viability (LDH assay) vs negative control: induced cell toxicity
[3]; GaPP 100-400 μg/ml
  cell viability (LDH assay) vs negative control: no significant effect
[4]; GaPP 500 μg/ml
  cell viability (LDH assay) vs negative control: induced cell toxicity
[4]; GaPP 100-400 μg/ml
  cell viability (LDH assay) vs negative control: no significant effect
S. aureus
  anti-bacterial activity (inhibition on plate): significant anti-bacterial activity
[5]; after 460 hours, 37° C., PBS
  release of GaPP (percentage of the original concentration in the gel): 20-25%
[5]; after 20 days
  incorporated GaPP released from the hydrogel: approximately 25%
[6]
  minimal inhibitory concentration: 0.90 µg/mL
[7]
  minimal inhibitory concentration: 1.48 µg/mL
[8]
  minimal inhibitory concentration: 0.74 µg/mL
[9]
  minimal inhibitory concentration: 1.48 µg/mL
[10]
  minimal inhibitory concentration: 1.48 µg/mL
[11]
  minimal inhibitory concentration: 1.48 µg/mL
